Assay results: publication PMC9698483, “Berbamine Reduces Chloroquine-Induced Itch in Mice through Inhibition of MrgprX1” (International Journal of Molecular Sciences, 2022)

Legend:
DCA-induced itch = experiment: DCA-induced pruritus in mice (scratching bouts); type: in vivo, BALB/c mice; settings: 30 mg/kg i.p., DCA 50 μg/50 μL
Experimental: To investigate the antipruritic effect of berbamine, we observed the effect of berbamine on pruritogen-induced scratching behavior in BALB/c mice. Mice were transferred to clear cages and treated with berbamine intraperitoneally after a 30 min acclimatization period. Mouse behavior was recorded for 30 min right after the subcutaneous injection of pruritogens to the nape 30 min after berbamine treatment (Figure 7A). […] We further investigated the effect of berbamine on pruritus caused by other pruritogens.
Figure 7 Effect of berbamine on acute pruritogen-induced pruritus in mice: (A) Scheme of acute pruritogen-induced pruritus mouse model. […] Statistical significance of differences between each group and CQ group was assessed using one-way ANOVA with Tukey’s post hoc test. * p < 0.05, ** p < 0.01, *** p < 0.001. […] Statistical significance of differences was determined using Student’s t-test. […]
[…] six-week-old BALB/c male mice were purchased from DBL (Chungcheong-do, Republic of Korea), and an additional 1 week was given for accommodation. […] After 30 min, pruritogen compounds (i.e., CQ, histamine, PAR2-AP, and DCA) were subcutaneously administered into the nape, and scratching bouts were recorded for 30 min. […] The total number of scratching bouts was counted by recording the number of scratching bouts in the recorded video over 30 min of observation time.

MrgprA3 = target: T1, MrgprA3 (Mus musculus, UniProt Q91WW3); experiment: Intracellular calcium measurement in HEK293T cells expressing mouse MrgprA3; type: cell-based; settings: pretreated 10 min prior to 300 μM CQ; read-out: IC50 of inhibition of CQ-induced MrgprA3 activation
T1 construct: expressed in transfected cells; host or cells: HEK293T
T1 sequence (Q91WW3 1-302): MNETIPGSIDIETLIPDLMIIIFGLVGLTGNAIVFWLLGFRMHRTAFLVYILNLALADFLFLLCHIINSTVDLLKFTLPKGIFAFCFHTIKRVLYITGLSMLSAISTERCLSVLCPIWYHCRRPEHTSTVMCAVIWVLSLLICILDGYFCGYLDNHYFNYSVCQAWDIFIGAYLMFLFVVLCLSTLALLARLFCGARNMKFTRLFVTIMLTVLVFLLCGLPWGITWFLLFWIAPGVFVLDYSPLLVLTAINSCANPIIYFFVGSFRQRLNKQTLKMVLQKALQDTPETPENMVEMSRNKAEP
Experimental: MRGPRA3 and MRGPRC11 are mouse orthologs of human MRGPRX1, and MrgprA3 is also activated by CQ, resulting in CQ-induced pruritus. To investigate the inhibitory effect of berbamine on MrgprA3, we established HEK293T cells overexpressing MrgprA3. […] We further investigated whether berbamine inhibited CQ-induced ERK1/2 phosphorylation in HEK-MrgprA3 cells. Strong and significant ERK1/2 phosphorylation was observed following CQ application, and ERK1/2 phosphorylation peaked 5 min after CQ treatment (Figure 6A,B).
Figure 5 Effect of berbamine on CQ-induced activation of MrgprA3: (A) Intracellular calcium levels were measured in HEK293T cells expressing mouse MrgprA3. Cells were treated with indicated concentrations of CQ. (B) Summary of dose–response (mean ± S.E., n = 6). (C) Cells were pretreated with indicated concentrations of berbamine for 10 min prior to 300 μM CQ treatment. (D) Summary of dose-response (mean ± S.E., n = 6). (E) Representative traces of intracellular calcium responses to BAM8−22 in HEK293T cells expressing MrgprC11. […]
Intracellular calcium levels were measured using a Fluo-4 NW calcium assay kit (Invitrogen, Carlsbad, CA) as per the manufacturer’s protocol in HEK293T and HT29 cells. […] After 1 h of incubation, Fluo-4 fluorescence was recorded with a FLUOstar Omega microplate reader equipped with syringe pumps and custom Fluo-4 excitation/emission filters (485/538 nm). […]

MrgprX1 = target: T2, MrgprX1 (Homo sapiens, UniProt Q96LB2); experiment: Intracellular calcium measurement (Fluo-4 NW) in HEK293T cells expressing MrgprX1; type: cell-based
T2 construct: expressed in transfected cells
Experimental: To identify novel antagonists of MrgprX1, a cell-based screening assay was established. […] Cells were treated with the indicated concentrations of CQ where the arrow indicates. (B) Summary of dose-response (mean ± S.E., n = 6). (C) Representative Fluo−4 fluorescence traces of MrgprX1 antagonist screening. Cells were treated with 30 μM of the test compounds for 10 min prior to treatment with 300 μM CQ.
Figure 2 Effect of berbamine and closantel on CQ- and ionomycin-induced increases in intracellular calcium levels: (A,B) Intracellular calcium levels were measured using Fluo−4 NW in HEK293T cells expressing MrgprX1. The cells were pretreated with the indicated concentrations of berbamine (BBM) and closantel (CLS) for 10 min prior to treatment with 300 μM CQ. (C) Summary of dose-response (mean ± S.E., n = 6). […] The cells were pretreated with the indicated concentrations of BBM and CLS for 10 min before treatment with ionomycin. (F) Summary of dose–response (mean ± S.E., n = 6).
Intracellular calcium levels were measured using a Fluo-4 NW calcium assay kit (Invitrogen, Carlsbad, CA) as per the manufacturer’s protocol in HEK293T and HT29 cells. Briefly, the cells were plated in a 96-well black-walled plate and incubated with 100 μL of assay buffer including Fluo-4 NW. […] Intracellular calcium increase was induced with the application of the indicated agonist. All modulators were dissolved in DMSO, and cells were treated with a final concentration of 1% DMSO.

T2 sequence (Q96LB2 whole entry): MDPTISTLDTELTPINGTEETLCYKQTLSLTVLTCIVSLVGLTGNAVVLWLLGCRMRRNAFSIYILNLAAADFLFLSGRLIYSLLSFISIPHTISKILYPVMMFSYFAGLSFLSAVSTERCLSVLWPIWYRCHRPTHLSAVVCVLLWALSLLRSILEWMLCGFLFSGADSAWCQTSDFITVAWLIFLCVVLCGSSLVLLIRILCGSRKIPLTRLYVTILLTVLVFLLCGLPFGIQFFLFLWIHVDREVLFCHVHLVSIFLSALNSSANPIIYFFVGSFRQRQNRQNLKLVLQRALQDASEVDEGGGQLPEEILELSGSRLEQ

COc1cc2c3cc1Oc1c(OC)c(OC)cc4c1[C@@H](Cc1ccc(O)c(c1)Oc1ccc(cc1)C[C@@H]3N(C)CC2)N(C)CC4 [berbamine]
effect on total scratching bouts induced by DCA (DCA-induced itch): no significant effect
IC50 (MrgprA3): 2900 nM
activation of MrgprX1 by the compound itself (MrgprX1; 30 μM berbamine (Figure S1)): did not activate MrgprX1 by itself
mode of inhibition of the activation of MrgprX1 by CQ (MrgprX1; 30 μM berbamine, CQ dose response (Figure S3)): competitive inhibitory effect
inhibition of MrgprX1 activation by BAM8-22 (MrgprX1; 10 min pretreatment, 500 nM BAM8-22 (Figure S2)): did not potently inhibit
inhibition at 30 µM (MrgprX1; HEK-293T, 30 μM test compound for 10 min, then 300 μM CQ, read-out: inhibition of the CQ-induced activation of MrgprX1 (screening)): > 90%
IC50 (MrgprX1; pretreated 10 min prior to 300 μM CQ, read-out: IC50 of inhibition of CQ-induced MrgprX1 activation): 1600 nM
